pIC50: −log10 of the molar value.
Target: human HSV DNA polymerase UL30 (Human herpesvirus 1 (strain 17) (HHV-1) (Human herpes simplex virus 1), UniProt P04293)
Assay: biochemical
Conditions: 625 pM HSV polymerase, 20 minutes at room temperature; read-out: HSV-polymerase Biochemical IC50

Compound: Cn1nc(C(=O)NCc2ccc(C#N)cc2)c2c1C(=O)N(CC1(S(=O)(=O)N3CCC(C)(O)C3)CC1)CC2 (single isomer, unassigned) [Example 130, (R)- or (S)-N-(4-Cyanobenzyl)-6-((1-((3-hydroxy-3-methylpyrrolidin-1-yl)sulfonyl)cyclopropyl)methyl)-1-methyl-7-oxo-4,5,6,7-tetrahydro-1H-pyrazolo[3,4-c]pyridine-3-carboxamide]
- pIC50: 6.91

Compound: Cn1nc(C(=O)NCc2ccc(C#N)cc2)c2c1C(=O)N(CC1(S(=O)(=O)C3CC3)CC1)CC2 [Example 3, N-(4-cyanobenzyl)-6-((1-(cyclopropylsulfonyl)cyclopropyl)methyl)-1-methyl-7-oxo-4,5,6,7-tetrahydro-1H-pyrazolo[3,4-c]pyridine-3-carboxamide]
- pIC50: 7.26

Compound: Cn1nc(C(=O)NCc2ccc(Cl)cc2)c2c1C(=O)N(CC1(S(=O)(=O)C3CC3)CC1)CC2 [Example 4, N-(4-Chlorobenzyl)-6-((1-(cyclopropylsulfonyl)cyclopropyl)methyl)-1-methyl-7-oxo-4,5,6,7-tetrahydro-1H-pyrazolo[3,4-c]pyridine-3-carboxamide]
- pIC50: 7.32

Compound: Cn1nc(C(=O)NCc2ccc(F)cc2)c2c1C(=O)N(CC1(S(=O)(=O)C3CC3)CC1)CC2 [Example 5, 6-((1-(Cyclopropylsulfonyl)cyclopropyl)methyl)-N-(4-fluorobenzyl)-1-methyl-7-oxo-4,5,6,7-tetrahydro-1H-pyrazolo[3,4-c]pyridine-3-carboxamide]
- pIC50: 6.38

Compound: CN(Cc1ccc(C#N)cc1)C(=O)c1nn(C)c2c1CCN(CC1(S(=O)(=O)C3CC3)CC1)C2=O [Example 6, N-(4-Cyanobenzyl)-6-((1-(cyclopropylsulfonyl)cyclopropyl)methyl)-N,1-dimethyl-7-oxo-4,5,6,7-tetrahydro-1H-pyrazolo[3,4-c]pyridine-3-carboxamide]
- pIC50: 6.02

Compound: Cc1ccc(CNC(=O)c2nn(C)c3c2CCN(CC2(S(=O)(=O)C4CC4)CC2)C3=O)cc1 [Example 8, 6-((1-(Cyclopropylsulfonyl)cyclopropyl)methyl)-1-methyl-N-(4-methylbenzyl)-7-oxo-4,5,6,7-tetrahydro-1H-pyrazolo[3,4-c]pyridine-3-carboxamide]
- pIC50: 5.79

Compound: Cn1nc(C(=O)NCc2ccc(C#N)c(F)c2)c2c1C(=O)N(CC1(S(=O)(=O)C3CC3)CC1)CC2 [Example 9, N-(4-Cyano-3-fluorobenzyl)-6-((1-(cyclopropylsulfonyl)cyclopropyl)methyl)-1-methyl-7-oxo-4,5,6,7-tetrahydro-1H-pyrazolo[3,4-c]pyridine-3-carboxamide]
- pIC50: 7.35

Compound: Cn1nc(C(=O)NCc2ccc(Cl)s2)c2c1C(=O)N(CC1(S(=O)(=O)C3CC3)CC1)CC2 [Example 10, N-((5-Chlorothiophen-2-yl)methyl)-6-((1-(cyclopropylsulfonyl)cyclopropyl)methyl)-1-methyl-7-oxo-4,5,6,7-tetrahydro-1H-pyrazolo[3,4-c]pyridine-3-carboxamide]
- pIC50: 6.19

Compound: Cc1cc(CNC(=O)c2nn(C)c3c2CCN(CC2(S(=O)(=O)C4CC4)CC2)C3=O)ccc1C#N [Example 11, N-(4-Cyano-3-methylbenzyl)-6-((1-(cyclopropylsulfonyl)cyclopropyl)methyl)-1-methyl-7-oxo-4,5,6,7-tetrahydro-1H-pyrazolo[3,4-c]pyridine-3-carboxamide]
- pIC50: 5.65

Compound: Cc1cc(C#N)ccc1CNC(=O)c1nn(C)c2c1CCN(CC1(S(=O)(=O)C3CC3)CC1)C2=O [Example 12, N-(4-Cyano-2-methylbenzyl)-6-((1-(cyclopropylsulfonyl)cyclopropyl)methyl)-1-methyl-7-oxo-4,5,6,7-tetrahydro-1H-pyrazolo[3,4-c]pyridine-3-carboxamide]
- pIC50: 6.46

Compound: Cn1nc(C(=O)NCc2ccc(C#N)cc2F)c2c1C(=O)N(CC1(S(=O)(=O)C3CC3)CC1)CC2 [Example 13, N-(4-Cyano-2-fluorobenzyl)-6-((1-(cyclopropylsulfonyl)cyclopropyl)methyl)-1-methyl-7-oxo-4,5,6,7-tetrahydro-1H-pyrazolo[3,4-c]pyridine-3-carboxamide]
- pIC50: 6.51

Compound: Cn1nc(C(=O)NCc2ccc(C#N)cn2)c2c1C(=O)N(CC1(S(=O)(=O)C3CC3)CC1)CC2 [Example 14, N-((5-Cyanopyridin-2-yl)methyl)-6-((1-(cyclopropylsulfonyl)cyclopropyl)methyl)-1-methyl-7-oxo-4,5,6,7-tetrahydro-1H-pyrazolo[3,4-c]pyridine-3-carboxamide]
- pIC50: 5.79

Compound: COc1cc(CNC(=O)c2nn(C)c3c2CCN(CC2(S(=O)(=O)C4CC4)CC2)C3=O)ccc1C#N [Example 15, N-(4-Cyano-3-methoxybenzyl)-6-((1-(cyclopropylsulfonyl)cyclopropyl)methyl)-1-methyl-7-oxo-4,5,6,7-tetrahydro-1H-pyrazolo[3,4-c]pyridine-3-carboxamide]
- pIC50: 6.41

Compound: C[C@H](NC(=O)c1nn(C)c2c1CCN(CC1(S(=O)(=O)C3CC3)CC1)C2=O)c1ccc(C#N)cc1 [Example 16, (S)-N-(1-(4-Cyanophenyl)ethyl)-6-((1-(cyclopropylsulfonyl)cyclopropyl)methyl)-1-methyl-7-oxo-4,5,6,7-tetrahydro-1H-pyrazolo[3,4-c]pyridine-3-carboxamide]
- pIC50: 6.62

Compound: C[C@@H](NC(=O)c1nn(C)c2c1CCN(CC1(S(=O)(=O)C3CC3)CC1)C2=O)c1ccc(C#N)cc1 [Example 17, (R)-N-(1-(4-Cyanophenyl)ethyl)-6-((1-(cyclopropylsulfonyl)cyclopropyl)methyl)-1-methyl-7-oxo-4,5,6,7-tetrahydro-1H-pyrazolo[3,4-c]pyridine-3-carboxamide]
- pIC50: < 4.60

Compound: Cn1nc(C(=O)N[C@@H](CO)c2ccc(Cl)cc2)c2c1C(=O)N(CC1(S(=O)(=O)C3CC3)CC1)CC2 [Example 18, (R)-N-(1-(4-Chlorophenyl)-2-hydroxyethyl)-6-((1-(cyclopropylsulfonyl)cyclopropyl)methyl)-1-methyl-7-oxo-4,5,6,7-tetrahydro-1H-pyrazolo[3,4-c]pyridine-3-carboxamide]
- pIC50: 5.98

Compound: Cn1nc(C(=O)N[C@H](CO)c2ccc(Cl)cc2)c2c1C(=O)N(CC1(S(=O)(=O)C3CC3)CC1)CC2 [Example 19, (S)-N-(1-(4-Chlorophenyl)-2-hydroxyethyl)-6-((1-(cyclopropylsulfonyl)cyclopropyl)methyl)-1-methyl-7-oxo-4,5,6,7-tetrahydro-1H-pyrazolo[3,4-c]pyridine-3-carboxamide]
- pIC50: 5.09

Compound: CCS(=O)(=O)C1(CN2CCc3c(C(=O)NCc4ccc(C#N)cc4)nn(C)c3C2=O)CC1 [Example 20, N-(4-Cyanobenzyl)-6-((1-(ethylsulfonyl)cyclopropyl)methyl)-1-methyl-7-oxo-4,5,6,7-tetrahydro-1H-pyrazolo[3,4-c]pyridine-3-carboxamide]
- pIC50: 6.59

Compound: Cn1nc(C(=O)NCc2ccc(C#N)cc2)c2c1C(=O)N(CC1(S(C)(=O)=O)CC1)CC2 [Example 21, N-(4-Cyanobenzyl)-1-methyl-6-((1-(methylsulfonyl)cyclopropyl)methyl)-7-oxo-4,5,6,7-tetrahydro-1H-pyrazolo[3,4-c]pyridine-3-carboxamide]
- pIC50: 6.29

Compound: Cn1nc(C(=O)NCc2ccc(Cl)cc2)c2c1C(=O)N(CC1(S(C)(=O)=O)CC1)CC2 [Example 22, N-(4-Chlorobenzyl)-1-methyl-6-((1-(methylsulfonyl)cyclopropyl)methyl)-7-oxo-4,5,6,7-tetrahydro-1H-pyrazolo[3,4-c]pyridine-3-carboxamide]
- pIC50: 6.36

From patent US20250353820A1, “ANTIVIRAL PYRAZOLOPYRIDINONE COMPOUNDS” (Novartis AG, priority 2019, published 2025)
